Test results taken from US20120010075A1 (priority 2009, published 2012).

tested on: Leptosphaeria nodorum (LEPTNO); assay: In vitro fungitoxicity of hydrazones with and without copper towards Leptosphaeria nodorum (Example 26); format: cell-based; conditions: Parastagonospora nodorum, 72 h, compound 0.05 μg/mL, copper-minus medium, 72 h at 25° C.; read-out: LEPTNO % Inhn. Minus Copper Observed

SMILES | inhibition of growth at 0.05 µg/mL [%]
C/C(=N\NC(=O)c1ccccc1C)c1ccccc1O [Example 66] | 0.1
O=C(N/N=C/c1cc(Cl)cc(Cl)c1O)c1cccc(Br)c1 [Example 71] | 2.6
Cc1ccc(C(=O)N/N=C/c2cc(Cl)cc(Cl)c2O)cc1 [Example 72] | 14.1
COc1ccc(C(=O)N/N=C/c2cc(Cl)cc(Cl)c2O)cc1 [Example 75] | 0
O=C(N/N=C/c1cc(Cl)cc(Cl)c1O)c1ccc(Cl)cc1Cl [Example 78] | 7.9
O=C(N/N=C/c1cc(Cl)cc(Cl)c1O)c1ccc(Br)cc1 [Example 80] | 0
COc1cccc(C(=O)N/N=C/c2cc(Cl)cc(Cl)c2O)c1 [Example 82] | 8.4
COc1ccc(C(=O)N/N=C/c2cc(Cl)cc(Cl)c2O)cc1OC [Example 85] | 5.3
CC(C)(C)c1ccc(C(=O)N/N=C/c2cc(Cl)cc(Cl)c2O)cc1 [Example 87] | 8.1
COc1cc(OC)cc(C(=O)N/N=C/c2cc(Cl)cc(Cl)c2O)c1 [Example 88] | 10.7
O=C(N/N=C/c1cc(Cl)cc(Cl)c1O)c1cccc(F)c1 [Example 89] | 17.5
O=C(N/N=C/c1cc(Cl)cc(Cl)c1O)c1ccccc1Oc1ccccc1 [Example 90] | 9.5
O=C(N/N=C/c1cc(Cl)cc(Cl)c1O)c1ccccc1Cl [Example 93] | 6
COc1ccccc1C(=O)N/N=C/c1cc(Cl)cc(Cl)c1O [Example 94] | 0
Cc1cccc(C(=O)N/N=C/c2cc(Cl)cc(Cl)c2O)c1 [Example 95] | 14.1
CN(C)c1ccc(C(=O)N/N=C/c2cc(Cl)cc(Cl)c2O)cc1 [Example 103] | 17.9
CCOc1ccc(C(=O)N/N=C/c2cc(Br)cc(Br)c2O)cc1 [Example 104] | 27.7
O=C(N/N=C/c1cc(Br)cc(Br)c1O)c1ccc(OC(F)(F)F)cc1 [Example 109] | 27.8
O=C(N/N=C/c1cc(Br)cc(Br)c1O)c1ccccc1Cl [Example 112] | 8.1
O=C(N/N=C/c1cc(Br)cc(Br)c1O)c1cccc(Br)c1 [Example 113] | 17
COc1ccccc1C(=O)N/N=C/c1cc(Br)cc(Br)c1O [Example 114] | 0
Cc1cccc(C(=O)N/N=C/c2cc(Br)cc(Br)c2O)c1 [Example 115] | 6.1
O=C(N/N=C/c1cc(Br)cc(Br)c1O)c1ccccc1F [Example 116] | 8.4
O=C(N/N=C/c1cc(Br)cc(Br)c1O)c1ccc(Br)cc1 [Example 118] | 10.6

same assay, conditions: compound 0.05 μg/mL, copper-minus medium, 72 h at 25° C.

SMILES | LEPTNO % Inhn. Minus Copper Observed [%]
C/C(=N\NC(=O)c1cccc(I)c1)c1ccccc1O [Example 13] | 0.0
C/C(=N\NC(=O)c1cccc(I)c1)c1ccccc1O [Example 26] | 2.1

same assay, conditions: compound 0.05 μg/mL, copper-plus medium (CuCl2.2H2O), 72 h at 25° C.

SMILES | LEPTNO % Inhn. Plus Copper Observed [%]
C/C(=N\NC(=O)c1cccc(I)c1)c1ccccc1O [Example 13] | 96.2
C/C(=N\NC(=O)c1cccc(I)c1)c1ccccc1O [Example 26] | 98.4
C/C(=N\NC(=O)c1ccccc1C)c1ccccc1O [Example 66] | 97.4
O=C(N/N=C/c1cc(Cl)cc(Cl)c1O)c1cccc(Br)c1 [Example 71] | 91.2
Cc1ccc(C(=O)N/N=C/c2cc(Cl)cc(Cl)c2O)cc1 [Example 72] | 91.3
COc1ccc(C(=O)N/N=C/c2cc(Cl)cc(Cl)c2O)cc1 [Example 75] | 98.4
O=C(N/N=C/c1cc(Cl)cc(Cl)c1O)c1ccc(Cl)cc1Cl [Example 78] | 96.3
O=C(N/N=C/c1cc(Cl)cc(Cl)c1O)c1ccc(Br)cc1 [Example 80] | 98.4
COc1cccc(C(=O)N/N=C/c2cc(Cl)cc(Cl)c2O)c1 [Example 82] | 97.4
COc1ccc(C(=O)N/N=C/c2cc(Cl)cc(Cl)c2O)cc1OC [Example 85] | 90.0
CC(C)(C)c1ccc(C(=O)N/N=C/c2cc(Cl)cc(Cl)c2O)cc1 [Example 87] | 98.6
COc1cc(OC)cc(C(=O)N/N=C/c2cc(Cl)cc(Cl)c2O)c1 [Example 88] | 96.7
O=C(N/N=C/c1cc(Cl)cc(Cl)c1O)c1cccc(F)c1 [Example 89] | 95.9
O=C(N/N=C/c1cc(Cl)cc(Cl)c1O)c1ccccc1Oc1ccccc1 [Example 90] | 96.4
O=C(N/N=C/c1cc(Cl)cc(Cl)c1O)c1ccccc1Cl [Example 93] | 95.2
COc1ccccc1C(=O)N/N=C/c1cc(Cl)cc(Cl)c1O [Example 94] | 92.9
Cc1cccc(C(=O)N/N=C/c2cc(Cl)cc(Cl)c2O)c1 [Example 95] | 94.0
CN(C)c1ccc(C(=O)N/N=C/c2cc(Cl)cc(Cl)c2O)cc1 [Example 103] | 98.1
CCOc1ccc(C(=O)N/N=C/c2cc(Br)cc(Br)c2O)cc1 [Example 104] | 98.2
O=C(N/N=C/c1cc(Br)cc(Br)c1O)c1ccc(OC(F)(F)F)cc1 [Example 109] | 98.3
O=C(N/N=C/c1cc(Br)cc(Br)c1O)c1ccccc1Cl [Example 112] | 97.8
O=C(N/N=C/c1cc(Br)cc(Br)c1O)c1cccc(Br)c1 [Example 113] | 98.0
COc1ccccc1C(=O)N/N=C/c1cc(Br)cc(Br)c1O [Example 114] | 36.9
Cc1cccc(C(=O)N/N=C/c2cc(Br)cc(Br)c2O)c1 [Example 115] | 97.4
O=C(N/N=C/c1cc(Br)cc(Br)c1O)c1ccccc1F [Example 116] | 98.2
O=C(N/N=C/c1cc(Br)cc(Br)c1O)c1ccc(Br)cc1 [Example 118] | 98.3

tested on: Phytophthora infestans; assay: not given; format: in vivo, Phytophthora infestans on tomato; conditions: hydrazone 50 ppm + 50 μM CuCl2.2H2O, applied 24 h before inoculation, assessed 7 days after inoculation, tomato

SMILES | TLB % Control [%]
C/C(=N\NC(=O)c1cccc(I)c1)c1ccccc1O [Example 13] | 33.3
C/C(=N\NC(=O)c1cccc(I)c1)c1ccccc1O [Example 26] | 12.3
C/C(=N\NC(=O)c1ccccc1C)c1ccccc1O [Example 66] | 51.0
O=C(N/N=C/c1cc(Cl)cc(Cl)c1O)c1cccc(Br)c1 [Example 71] | 78.0
Cc1ccc(C(=O)N/N=C/c2cc(Cl)cc(Cl)c2O)cc1 [Example 72] | 81.3
COc1ccc(C(=O)N/N=C/c2cc(Cl)cc(Cl)c2O)cc1 [Example 75] | 15.8
O=C(N/N=C/c1cc(Cl)cc(Cl)c1O)c1ccc(Cl)cc1Cl [Example 78] | 70.9
O=C(N/N=C/c1cc(Cl)cc(Cl)c1O)c1ccc(Br)cc1 [Example 80] | 91.5
COc1cccc(C(=O)N/N=C/c2cc(Cl)cc(Cl)c2O)c1 [Example 82] | 60.6
COc1ccc(C(=O)N/N=C/c2cc(Cl)cc(Cl)c2O)cc1OC [Example 85] | 51.5
CC(C)(C)c1ccc(C(=O)N/N=C/c2cc(Cl)cc(Cl)c2O)cc1 [Example 87] | 69.5
COc1cc(OC)cc(C(=O)N/N=C/c2cc(Cl)cc(Cl)c2O)c1 [Example 88] | 4.8
O=C(N/N=C/c1cc(Cl)cc(Cl)c1O)c1cccc(F)c1 [Example 89] | 85.8
O=C(N/N=C/c1cc(Cl)cc(Cl)c1O)c1ccccc1Oc1ccccc1 [Example 90] | 54.6
O=C(N/N=C/c1cc(Cl)cc(Cl)c1O)c1ccccc1Cl [Example 93] | 77.2
COc1ccccc1C(=O)N/N=C/c1cc(Cl)cc(Cl)c1O [Example 94] | 37.0
Cc1cccc(C(=O)N/N=C/c2cc(Cl)cc(Cl)c2O)c1 [Example 95] | 81.2
CN(C)c1ccc(C(=O)N/N=C/c2cc(Cl)cc(Cl)c2O)cc1 [Example 103] | 63.2
CCOc1ccc(C(=O)N/N=C/c2cc(Br)cc(Br)c2O)cc1 [Example 104] | 70.2
O=C(N/N=C/c1cc(Br)cc(Br)c1O)c1ccc(OC(F)(F)F)cc1 [Example 109] | 89.1
O=C(N/N=C/c1cc(Br)cc(Br)c1O)c1ccccc1Cl [Example 112] | 78.2
O=C(N/N=C/c1cc(Br)cc(Br)c1O)c1cccc(Br)c1 [Example 113] | 94.7
COc1ccccc1C(=O)N/N=C/c1cc(Br)cc(Br)c1O [Example 114] | 7.5
Cc1cccc(C(=O)N/N=C/c2cc(Br)cc(Br)c2O)c1 [Example 115] | 78.2
O=C(N/N=C/c1cc(Br)cc(Br)c1O)c1ccccc1F [Example 116] | 88.8
O=C(N/N=C/c1cc(Br)cc(Br)c1O)c1ccc(Br)cc1 [Example 118] | 85.3
